Experimental data from paper PMC4131897 (Biochemistry, 2014).
Numbering of substitutions follows the chain as printed.

Columns and labels:
Assay in all cases: intrinsic tryptophan fluorescence quenching
Assay type in all cases: binding
[1] = target: T1, BjPutA (proline utilization A) (Bradyrhizobium diazoefficiens, UniProt Q89E26, D778Y)
T1 sequence (Q89E26 1-999 D778Y): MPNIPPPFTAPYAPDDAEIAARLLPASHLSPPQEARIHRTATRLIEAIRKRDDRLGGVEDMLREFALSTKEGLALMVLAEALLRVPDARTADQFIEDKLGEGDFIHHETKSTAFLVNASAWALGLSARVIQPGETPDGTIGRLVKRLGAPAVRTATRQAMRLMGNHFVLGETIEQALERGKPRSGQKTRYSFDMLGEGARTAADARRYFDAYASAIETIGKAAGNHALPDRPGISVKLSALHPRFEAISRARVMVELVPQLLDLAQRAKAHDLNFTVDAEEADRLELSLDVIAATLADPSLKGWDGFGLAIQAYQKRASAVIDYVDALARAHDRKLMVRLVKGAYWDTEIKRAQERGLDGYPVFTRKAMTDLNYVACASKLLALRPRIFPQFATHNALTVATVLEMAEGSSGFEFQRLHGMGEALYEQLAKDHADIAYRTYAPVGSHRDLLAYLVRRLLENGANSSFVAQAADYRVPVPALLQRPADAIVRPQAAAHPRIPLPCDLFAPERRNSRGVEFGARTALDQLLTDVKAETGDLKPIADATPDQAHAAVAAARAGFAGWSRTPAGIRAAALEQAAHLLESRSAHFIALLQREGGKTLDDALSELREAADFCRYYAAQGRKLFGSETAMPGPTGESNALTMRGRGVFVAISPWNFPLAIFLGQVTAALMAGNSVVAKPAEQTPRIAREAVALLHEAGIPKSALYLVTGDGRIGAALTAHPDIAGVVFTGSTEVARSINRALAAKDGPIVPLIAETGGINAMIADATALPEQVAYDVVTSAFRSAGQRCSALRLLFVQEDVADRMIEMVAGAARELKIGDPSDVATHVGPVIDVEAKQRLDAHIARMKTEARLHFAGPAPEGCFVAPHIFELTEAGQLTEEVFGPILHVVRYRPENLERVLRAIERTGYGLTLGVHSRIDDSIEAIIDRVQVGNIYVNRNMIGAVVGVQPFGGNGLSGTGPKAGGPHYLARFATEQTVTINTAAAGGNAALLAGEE

[2] = target: T2, BjPutA (proline utilization A) (Bradyrhizobium diazoefficiens, UniProt Q89E26, T348Y)
T2 sequence (Q89E26 1-999 T348Y): T1 sequence (Q89E26 1-999 D778Y) with T348Y, Y778D

[3] = target: T3, BjPutA (proline utilization A) (Bradyrhizobium diazoefficiens, UniProt Q89E26, D779Y)
T3 sequence (Q89E26 1-999 D779Y): T1 sequence (Q89E26 1-999 D778Y) with Y778D, D779Y

Kd [1]: 670 ± 40 nM | Kd [2]: 750 ± 60 nM | Kd [3]: 650 ± 40 nM
SMILES: NC(=O)c1ccc[n+]([C@@H]2O[C@H](COP(=O)(O)OP(=O)(O)OC[C@H]3O[C@@H](n4cnc5c(N)ncnc54)[C@H](O)[C@@H]3O)[C@@H](O)[C@H]2O)c1 [NAD^+]
